Like-named read-outs stand apart in the source and are kept apart here.
Tests used:
[1] = molecular target: T1, PI 3-kinase alpha (Homo sapiens, UniProt P42336); experiment: Cellular assay H2, p-AKT (Ser473) in Rat-1 cells, HTRF format; assay type: cell-based; settings: asterisked data: version H2 (HTRF format), read-out: Assay H PI3Kα IC50
Procedure: (§1) Cellular Assays for PI 3-Kinase Alpha (H2), Beta (12) and Delta (J2): HTRF (Homogeneous Time Resolved Fluorescence) Format
(§2) All cell lines were cultivated in complete growth medium (DMEM high glucose GlutaMAX™ Pyruvate, 10% (v/v) fetal bovine serum, 0.1 mM MEM NEAA, 25 mM HEPES, puromycin 10 μg/mL, 100 U/ml Penicillin, 100 μg/ml Streptomycin) to 90% confluency at 37° C./5% CO2/90% humidity in a humidified CO2 incubator and were split twice a week.
(§3) Semi-automated preparation of cell lysates: For low (inhibited) controls, 0.9 mM NVP-BGT226-AF-1 in 90% (v/v) DMSO was added to the compound master plate. For compound testing, the cells were seeded at a density of 4000 (Rat-1_PI3Kdelta), 8000 (Rat-1_PI3Kalpha), or 6500 (Rat-1_PI3Kbeta) cells in 30 μl complete growth medium into cell culture treated 384-well plates and were grown at 37° C./5% CO2/90% humidity for 24 h. 10 μl of the compound predilutions were transferred to the cells.

[2] = molecular target: T2, PI 3-kinase beta (Homo sapiens, UniProt P42338); experiment: Kinase Glo Luminescent Kinase Assay (Kglo), assay B; assay type: biochemical; settings: read-out: Assay B PI3Kβ IC50
Procedure: (§4) Kinase Glo Luminescent Kinase Assay (Kglo) for Pb 3-Kinase Alpha (A), Pb 3-Kinase Beta (B), Vps34 (C), Pb 4-Kinase Beta (D)
(§5) The Kinase Glo Luminescent Kinase Assay (Promega, Madison/Wis., USA) is a homogeneous HTS method of measuring kinase activity by quantifying the amount of ATP remaining in solution following a kinase reaction.
(§6) L-α-phosphatidylinositol (PI), provided as 10 mg/ml solution in methanol, was transferred into a glass tube and dried under a nitrogen beam. It was then resuspended in 3% OctylGlucoside (1-0-n-octyl-beta-D-glucopyranoside) by vortexing and stored at 4° C. 5 μL of a mix of PI/OctylGlucoside with the PI 3-kinase alpha and PI 3-kinase beta subtypes, or Vps34 or PI 4-kinase beta were added. Kinase reactions were started by the addition of 5 μl of an ATP-mix containing in a final volume 10 μL 10 mM TRIS-HCl pH 7.5, 3 mM MgCl2, 50 mM NaCl, 0.05% CHAPS, 1 mM DTT and 1 μM ATP at room temperature.
(§7) All fits were performed with the program XLfit4 (ID Business Solutions, Guildford, UK).

[3] = molecular target: PI 4-kinase beta (Homo sapiens, UniProt Q9UBF8); experiment: Kinase Glo Luminescent Kinase Assay (Kglo), assay D; assay type: biochemical
Procedure: as §4, §5, §6, §7

[4] = molecular target: T3, PI 3-kinase gamma (Homo sapiens, UniProt P48736); experiment: TR-FRET Adapta assay, assay E; assay type: biochemical; settings: read-out: Assay E PI3Kγ IC50
T3 sequence (P48736 whole entry): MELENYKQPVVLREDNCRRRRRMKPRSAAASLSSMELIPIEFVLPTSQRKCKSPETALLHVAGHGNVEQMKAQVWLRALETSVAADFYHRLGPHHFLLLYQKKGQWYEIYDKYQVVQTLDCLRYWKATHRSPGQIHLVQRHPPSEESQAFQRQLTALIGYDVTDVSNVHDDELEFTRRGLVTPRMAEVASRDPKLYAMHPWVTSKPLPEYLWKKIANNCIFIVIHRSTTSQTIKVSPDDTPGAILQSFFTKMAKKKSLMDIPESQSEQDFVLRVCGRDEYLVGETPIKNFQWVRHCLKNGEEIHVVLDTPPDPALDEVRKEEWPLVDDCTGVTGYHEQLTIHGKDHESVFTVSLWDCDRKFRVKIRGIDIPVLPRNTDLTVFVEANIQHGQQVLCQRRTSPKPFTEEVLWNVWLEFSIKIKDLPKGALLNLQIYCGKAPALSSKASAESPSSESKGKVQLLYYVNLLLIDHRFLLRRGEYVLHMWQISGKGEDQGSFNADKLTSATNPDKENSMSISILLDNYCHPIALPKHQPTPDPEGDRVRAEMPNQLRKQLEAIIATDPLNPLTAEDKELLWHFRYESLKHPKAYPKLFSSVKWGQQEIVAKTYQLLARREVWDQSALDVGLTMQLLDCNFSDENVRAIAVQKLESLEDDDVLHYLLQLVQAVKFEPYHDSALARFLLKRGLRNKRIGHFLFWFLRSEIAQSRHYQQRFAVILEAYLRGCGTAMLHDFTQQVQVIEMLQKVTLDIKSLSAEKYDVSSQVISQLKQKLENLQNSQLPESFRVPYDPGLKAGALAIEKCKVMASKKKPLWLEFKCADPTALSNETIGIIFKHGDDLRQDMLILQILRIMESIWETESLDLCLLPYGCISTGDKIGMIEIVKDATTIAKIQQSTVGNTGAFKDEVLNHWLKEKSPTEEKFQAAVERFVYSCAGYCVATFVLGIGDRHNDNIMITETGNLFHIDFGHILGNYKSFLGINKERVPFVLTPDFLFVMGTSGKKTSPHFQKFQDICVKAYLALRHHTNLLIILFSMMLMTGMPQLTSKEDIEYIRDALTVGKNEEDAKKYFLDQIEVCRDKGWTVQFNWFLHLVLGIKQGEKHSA

[5] = Microsomal clearance assay (M); settings: intrinsic clearance in rat liver microsomes
Procedure: (§8) The experiments were performed in 96-well glass plates at 37° C. on an automated Tecan EVO platform. Test compounds at a concentration of 10 mM in pure DMSO were diluted 1:1000 in water to 10 μM. […] Reactions were initiated by the addition of 150 μL of a cofactor solution containing 2 mM NADPH.

[6] = molecular target: T3, PI 3-kinase gamma; experiment: Cellular U937 AKT assay K2 (HTRF); assay type: cell-based; settings: U937 cells, K2 format; read-out: Assay K2 PI3Kγ IC50
Procedure: In assays K1 and K2, the compounds were tested for their ability to inhibit the production of phosphorylated AKT (Protein Kinase B) generated in a PI 3-kinase gamma isoform-dependent process in a U937 human cell line.
Cellular U937 AKT Assay for PI 3-Kinase Gamma (K2)
U937 cells are split every 3-4 days: 5×10^6 cells/flask (175 cm^2) in 40 ml.
Semi-automated preparation of cell lysates: Cells were resuspended in HBSS, seeded (200′000 cells/well/60 μl) into a 384-well plate and incubated in a humidified 37° C., 5% CO2 incubator for 1.5 hours. The compounds were diluted with HBSS and 40 μl were added to the starved cells (except for wells 24 I-P). […] The cells were then incubated for 30 minutes at 37° C. and 5% CO2. Stimulation occurred during 3 minutes by addition of 20 μl MIP1α (final 10 ng/ml, diluted in HBSS) in the incubator. Wells 24 A-H were only stimulated with HBSS.
The stimulation was then stopped by putting the cell plates on ice (filled with cold water). The cells were then centrifuged at 1200 rpm and 4° C. for 3 minutes.
80 μl of supernatant was removed. The cells were again centrifuged at 1200 rpm and 4° C. for 3 minutes. The supernatant was then removed by turning plates upside down and 30 μl of lysis buffer were added. The plate was incubated at room temperature for 30 minutes under shaking. 16 μl were then transferred to a ProxiPlate Plus 384-well. 4 μl of the master mix (each conjugate diluted 1:20 with detection reagent) were added to each well and the plate was kept in the dark at room temperature for 4 hours.

[7] = molecular target: T1, PI 3-kinase alpha; experiment: Kinase Glo Luminescent Kinase Assay (Kglo), assay A; assay type: biochemical; settings: read-out: Assay A PI3Kα IC50
Target sequence in this assay (P42336 whole entry): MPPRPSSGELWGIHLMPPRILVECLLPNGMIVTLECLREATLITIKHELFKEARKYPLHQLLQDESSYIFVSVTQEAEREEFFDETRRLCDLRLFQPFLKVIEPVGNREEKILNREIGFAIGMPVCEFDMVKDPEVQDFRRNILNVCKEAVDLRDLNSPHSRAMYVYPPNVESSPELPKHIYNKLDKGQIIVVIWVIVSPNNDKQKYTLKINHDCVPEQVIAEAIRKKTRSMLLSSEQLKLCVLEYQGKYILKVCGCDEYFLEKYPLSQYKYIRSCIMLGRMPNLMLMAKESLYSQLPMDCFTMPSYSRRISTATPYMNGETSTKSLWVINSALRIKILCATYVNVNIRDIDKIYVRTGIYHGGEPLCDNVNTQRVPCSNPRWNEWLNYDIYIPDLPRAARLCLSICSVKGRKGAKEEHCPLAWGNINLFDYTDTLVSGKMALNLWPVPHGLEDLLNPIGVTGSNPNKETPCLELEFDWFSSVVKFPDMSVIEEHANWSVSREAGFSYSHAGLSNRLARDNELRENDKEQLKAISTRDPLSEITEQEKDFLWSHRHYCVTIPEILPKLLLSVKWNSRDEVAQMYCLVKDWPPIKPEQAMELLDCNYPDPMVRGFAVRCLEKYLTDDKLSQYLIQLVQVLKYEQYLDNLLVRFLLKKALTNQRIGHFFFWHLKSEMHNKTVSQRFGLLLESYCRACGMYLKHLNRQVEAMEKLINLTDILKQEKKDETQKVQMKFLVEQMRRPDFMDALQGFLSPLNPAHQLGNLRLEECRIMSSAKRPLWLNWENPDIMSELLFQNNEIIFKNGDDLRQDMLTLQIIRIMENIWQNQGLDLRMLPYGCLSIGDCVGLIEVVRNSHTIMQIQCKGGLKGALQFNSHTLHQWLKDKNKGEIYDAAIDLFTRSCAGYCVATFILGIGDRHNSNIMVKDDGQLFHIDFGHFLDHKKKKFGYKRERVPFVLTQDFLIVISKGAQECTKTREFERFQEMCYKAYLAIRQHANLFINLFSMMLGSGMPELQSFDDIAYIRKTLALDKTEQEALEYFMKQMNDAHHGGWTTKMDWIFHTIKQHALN

[8] = molecular target: T4, PI 3-kinase delta (Homo sapiens, UniProt O00329); experiment: Cellular assay J2, p-AKT (Ser473) in Rat-1 cells, HTRF format; assay type: cell-based; settings: asterisked data: version J2 (HTRF format), read-out: Assay J PI3Kδ IC50
Target sequence in this assay (O00329 whole entry): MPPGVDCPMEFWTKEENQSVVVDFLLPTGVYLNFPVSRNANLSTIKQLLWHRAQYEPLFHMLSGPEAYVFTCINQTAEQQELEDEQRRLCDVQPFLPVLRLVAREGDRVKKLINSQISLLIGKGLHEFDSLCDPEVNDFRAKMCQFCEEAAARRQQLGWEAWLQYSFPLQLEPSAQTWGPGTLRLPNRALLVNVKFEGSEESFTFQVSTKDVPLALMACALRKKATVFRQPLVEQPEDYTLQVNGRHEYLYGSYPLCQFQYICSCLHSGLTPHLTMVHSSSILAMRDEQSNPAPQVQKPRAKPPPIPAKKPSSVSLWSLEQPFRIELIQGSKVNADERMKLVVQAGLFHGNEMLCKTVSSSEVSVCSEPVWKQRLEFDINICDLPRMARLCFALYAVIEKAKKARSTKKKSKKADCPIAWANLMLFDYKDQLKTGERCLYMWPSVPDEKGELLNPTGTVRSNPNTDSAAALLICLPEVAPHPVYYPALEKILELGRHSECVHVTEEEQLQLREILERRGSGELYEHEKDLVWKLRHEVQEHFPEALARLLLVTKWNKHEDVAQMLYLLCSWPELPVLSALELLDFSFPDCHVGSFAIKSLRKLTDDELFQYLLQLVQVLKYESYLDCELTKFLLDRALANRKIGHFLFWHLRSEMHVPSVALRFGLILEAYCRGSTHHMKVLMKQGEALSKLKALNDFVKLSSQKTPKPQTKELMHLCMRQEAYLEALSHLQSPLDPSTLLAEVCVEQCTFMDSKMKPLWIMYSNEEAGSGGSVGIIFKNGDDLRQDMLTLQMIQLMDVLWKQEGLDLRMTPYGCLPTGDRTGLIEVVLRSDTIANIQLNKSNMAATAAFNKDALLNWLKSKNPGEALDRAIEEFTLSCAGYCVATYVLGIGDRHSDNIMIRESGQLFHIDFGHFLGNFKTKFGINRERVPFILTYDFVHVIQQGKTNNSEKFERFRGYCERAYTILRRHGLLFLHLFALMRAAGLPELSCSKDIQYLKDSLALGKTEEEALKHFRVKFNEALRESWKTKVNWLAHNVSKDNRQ
Target sequence in this assay (Q63787 whole entry partner): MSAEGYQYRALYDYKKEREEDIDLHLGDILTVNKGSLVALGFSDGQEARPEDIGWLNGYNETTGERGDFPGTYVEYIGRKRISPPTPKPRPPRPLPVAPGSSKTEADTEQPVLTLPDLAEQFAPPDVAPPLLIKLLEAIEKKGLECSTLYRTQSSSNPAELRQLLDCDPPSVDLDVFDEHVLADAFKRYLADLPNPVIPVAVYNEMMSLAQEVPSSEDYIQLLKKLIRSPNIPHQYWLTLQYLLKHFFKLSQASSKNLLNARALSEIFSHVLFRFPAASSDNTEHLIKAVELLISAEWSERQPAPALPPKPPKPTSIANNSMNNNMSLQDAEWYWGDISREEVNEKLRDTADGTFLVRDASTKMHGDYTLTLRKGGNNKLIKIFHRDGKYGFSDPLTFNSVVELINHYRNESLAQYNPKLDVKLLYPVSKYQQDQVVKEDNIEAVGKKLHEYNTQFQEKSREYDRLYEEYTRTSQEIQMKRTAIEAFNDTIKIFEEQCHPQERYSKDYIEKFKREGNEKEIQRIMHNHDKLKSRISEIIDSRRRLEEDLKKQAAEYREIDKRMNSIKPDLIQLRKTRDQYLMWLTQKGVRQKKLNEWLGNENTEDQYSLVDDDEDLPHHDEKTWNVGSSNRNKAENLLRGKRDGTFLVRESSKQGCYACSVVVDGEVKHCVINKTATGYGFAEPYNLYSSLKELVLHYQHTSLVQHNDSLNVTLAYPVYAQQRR
Procedure: as §1, §2, §3

[9] = molecular target: T2, PI 3-kinase beta; experiment: Cellular assay I2, p-AKT (Ser473) in Rat-1 cells, HTRF format; assay type: cell-based; settings: asterisked data: version I2 (HTRF format), read-out: Assay I PI3Kβ IC50
Procedure: as §1, §2, §3

[10] = molecular target: T4, PI 3-kinase delta; experiment: TR-FRET Adapta assay, assay F
Target sequence in this assay (O00329 whole entry): as the sequence (O00329 whole entry) above
Target sequence in this assay (P27986 461-568 partner): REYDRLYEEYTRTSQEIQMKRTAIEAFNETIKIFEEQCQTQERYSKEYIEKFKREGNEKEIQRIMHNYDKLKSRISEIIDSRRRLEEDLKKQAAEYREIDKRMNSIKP

[11] = molecular target: Vps34 (Homo sapiens, UniProt Q8NEB9); experiment: Kinase Glo Luminescent Kinase Assay (Kglo), assay C; assay type: biochemical
Chain of Vps34 (Q8NEB9 whole entry, species assumed): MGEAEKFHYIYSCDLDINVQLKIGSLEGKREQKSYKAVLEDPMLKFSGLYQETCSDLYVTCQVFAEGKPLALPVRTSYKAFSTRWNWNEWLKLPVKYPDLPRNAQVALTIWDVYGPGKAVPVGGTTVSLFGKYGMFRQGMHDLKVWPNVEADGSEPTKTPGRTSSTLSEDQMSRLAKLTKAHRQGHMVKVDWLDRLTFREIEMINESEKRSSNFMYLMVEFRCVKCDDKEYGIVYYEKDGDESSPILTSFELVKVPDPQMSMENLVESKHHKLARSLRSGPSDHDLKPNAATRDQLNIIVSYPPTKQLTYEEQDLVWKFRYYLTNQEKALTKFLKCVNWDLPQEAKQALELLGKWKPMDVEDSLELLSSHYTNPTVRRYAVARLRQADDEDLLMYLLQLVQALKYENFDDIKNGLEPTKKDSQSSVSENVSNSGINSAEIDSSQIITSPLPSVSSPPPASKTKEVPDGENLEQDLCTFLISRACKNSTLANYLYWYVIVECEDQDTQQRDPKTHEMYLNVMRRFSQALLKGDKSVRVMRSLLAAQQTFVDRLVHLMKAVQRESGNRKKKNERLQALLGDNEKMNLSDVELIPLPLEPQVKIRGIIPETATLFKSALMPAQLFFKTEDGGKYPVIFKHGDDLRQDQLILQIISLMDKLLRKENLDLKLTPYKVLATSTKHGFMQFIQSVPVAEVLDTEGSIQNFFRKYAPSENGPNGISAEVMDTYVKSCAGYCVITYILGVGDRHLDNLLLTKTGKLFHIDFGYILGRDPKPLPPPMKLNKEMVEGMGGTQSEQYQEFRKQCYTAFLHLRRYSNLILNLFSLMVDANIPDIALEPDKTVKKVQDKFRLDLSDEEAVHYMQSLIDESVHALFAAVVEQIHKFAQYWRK

[12] = tested on: IL-8-induced neutrophil shape change in human whole blood; experiment: Whole blood neutrophil shape change assay (L); assay type: cell-based; settings: Homo sapiens, Neutrophil, IL-8, human whole blood, read-out: Assay L WBSC IC50
[13] = rat, microsomes, 1 µM, pH 7.4
Procedure: as §8

[14] = molecular target: T4, PI 3-kinase delta; experiment: Cellular assay J1, p-Akt (S473) in Rat-1 cells, Surefire format; assay type: cell-based
Target sequence in this assay (O00329 whole entry): as the sequence (O00329 whole entry) above
Target sequence in this assay (Q63787 whole entry partner): as the sequence (Q63787 whole entry partner) above

[15] = molecular target: T1, PI 3-kinase alpha; experiment: Cellular assay H1, p-Akt (S473) in Rat-1 cells, Surefire format; assay type: cell-based
[16] = molecular target: T3, PI 3-kinase gamma; experiment: Cellular U937 AKT assay K1 (MSD); assay type: cell-based; settings: U937 cells, K1 format; read-out: Assay K1 PI3Kγ IC50
[17] = molecular target: mTOR (Homo sapiens, UniProt P42345); experiment: Lanthascreen kinase binding assay, assay G; settings: Assay G mTOR IC50 (μM)
Procedure: Lanthascreen™ Kinase Binding Assay for mTOR (G)
Binding of an inhibitor to the kinase competes for binding with the tracer, resulting in a loss of FRET.
50 nL of compound dilutions were dispensed onto white 384-well small volume polystyrene plate.

[18] = molecular target: T2, PI 3-kinase beta; experiment: Cellular assay I1, p-Akt (S473) in Rat-1 cells, Surefire format; assay type: cell-based
Source text: Cellular Assays for PI 3-Kinase Alpha (H1), Beta (I1) and Delta (J1): Surefire Format
AlphaScreen (Amplified Luminescent Proximity Homogeneous Assay, ALPHA, Perkin Elmer) is a non-radioactive bead-based proximity assay technology to study biomolecular interactions in a homogenous microtiter plate format. The brand name SureFire denotes AlphaScreen assays that are adapted to quantify the phosphorylation of endogenous cellular proteins in cell lysates, by using matched antibody pairs, which consist of an anti-phospho-kinase and an anti-kinase antibody. The assay allows characterization of kinase signaling in cells as well as measurement of kinase inhibitor effects.
Using Rat-1 cells stably expressing myr-HA-tagged versions of the human PI3Kdelta, PI3Kalpha, or PI3Kbeta p110 catalytic subunit isoforms, the assay was developed as a two-plate protocol in a 384-well format.
For compound testing, the cells were seeded at a density of 4000 (Rat-1_PI3Kdelta), 7500 (Rat-1_PI3Kalpha), or 6200 (Rat-1_PI3Kbeta) cells in 20 μl complete growth medium into cell culture treated 384-well plates and were grown at 37° C./5% CO2/90% humidity for 24 h. Shortly before compound transfer, the complete medium was removed, 30 μl assay buffer (DMEM high glucose, 1×MEM NEAA, 10 mM HEPES, 2 mM L-glutamine, 0.1% (w/v) BSA) was added and 10 μl of the compound predilutions were transferred to the cells.

IC50 [1] [nM] | IC50 [2] [nM] | IC50 ([3]; read-out: Assay D PI4Kβ IC50) [µM] | IC50 [4] [nM] | Assay M RLM CI(int) [5] [µL/min/mg] | IC50 [6] [nM] | IC50 [7] [nM] | IC50 [8] [nM] | IC50 [9] [nM] | IC50 ([10]; read-out: Assay F PI3Kδ IC50) [nM] | IC50 ([11]; read-out: Assay C VPS34 IC50) [nM] | IC50 [10] [nM] | SMILES | IC50 [12] [nM] | other results
350 | 320 | 4.9 | 39 | 83 | 33 | 30 | 280 | 880 | 100 | – | – | Cc1ncc(-c2nc(-c3cc(S(=O)(=O)NCC4(CO)CCOCC4)ccc3C)cnc2N)s1 [Example 45.9, 3-(5-Amino-6-(2-methylthiazol-5-yl)pyrazin-2-yl)-N-((4-(hydroxymethyl)tetrahydro-2H-pyran-4-yl)methyl)-4-methylbenzenesulfonamide] | – | –
1230 | 880 | 1.8 | 9 | 502 | – | 110 | 580 | 2130 | 100 | 3000 | – | Cc1ncc(-c2nc(-c3cc(S(=O)(=O)NCC4CCCCO4)ccc3C)cnc2N)s1 (stereo not drawn) [Example 45.4, 3-(5-Amino-6-(2-methylthiazol-5-yl)pyrazin-2-yl)-4-methyl-N-((tetrahydro-2H-pyran-2-yl)methyl)benzenesulfonamide] | – | –
5440 | 1500 | 4.8 | 42 | 45 | 180 | 230 | 2180 | 2950 | – | 5500 | 2200 | Cc1ncc(-c2nc(-c3cc(S(=O)(=O)N[C@H]4C[C@H](O)C4)ccc3C)cnc2N)s1 [Example 43b, trans-3-(5-Amino-6-(2-methylthiazol-5-yl)pyrazin-2-yl)-N-(3-hydroxycyclobutyl)-4-methylbenzenesulfonamide] | – | –
2140 | 690 | 2.3 | 26 | 63 | 68 | 100 | 970 | 4560 | – | 2500 | 670 | Cc1ncc(-c2nc(-c3cc(S(=O)(=O)N[C@H]4C[C@@H](O)C4)ccc3C)cnc2N)s1 [Example 43a, cis-3-(5-Amino-6-(2-methylthiazol-5-yl)pyrazin-2-yl)-N-(3-hydroxycyclobutyl)-4-methylbenzenesulfonamide] | 992 | –

Continued, compound first:

SMILES | IC50 [1] [nM] | IC50 [2] [nM] | IC50 ([3]; read-out: Assay D PI4Kβ IC50) [µM] | IC50 [4] [nM] | Assay M RLM CI(int) [5] [µL/min/mg] | IC50 [6] [nM] | IC50 [7] [nM] | IC50 [8] [nM] | IC50 [9] [nM] | IC50 ([10]; read-out: Assay F PI3Kδ IC50) [nM] | IC50 ([11]; read-out: Assay C VPS34 IC50) [nM] | IC50 [10] [nM] | IC50 [12] [nM] | other results
Cc1ncc(-c2nc(-c3cc(S(=O)(=O)NCC(C)(C)O)ccc3C)cnc2N)o1 [Example 126, 3-(5-Amino-6-(2-methyloxazol-5-yl)pyrazin-2-yl)-N-(2-hydroxy-2-methylpropyl)-4-methylbenzenesulfonamide] | 4000 | 3100 | > 10 | 57 | 20 | – | 280 | 4240 | > 10000 | 1000 | > 10000 | – | – | –
Cc1ccc(S(=O)(=O)NC2CCOCC2)cc1-c1cnc(N)c(-n2cncn2)n1 [Example 68, 3-(5-Amino-6-(1H-1,2,4-triazol-1-yl)pyrazin-2-yl)-4-methyl-N-(tetrahydro-2H-pyran-4-yl)benzenesulfonamide] | – | 2550 | – | 72 | – | – | 640 | – | – | 1500 | – | – | 1790 | IC50 ([3]; Assay D PI4Kβ IC50 (μM)): 4.4 µM; Assay M RLM CI(int) [13]: 54 µL/min/mg; IC50 [14]: 3110 nM; IC50 [15]: 2840 nM; IC50 [16]: 430 nM; IC50 [17]: 8.75 µM; IC50 [18]: 6250 nM; IC50 [11]: > 10000 nM
